Test results reported in patent US9850542B2, “Gene signature to predict homologous recombination (HR) deficient cancer” (Board of Regents, The University of Texas System, priority 2013, dated 2017).

Experiments:
HCC1937 = assay: Drug combination study by MTT assay (combination index, CompuSyn); format: cell-based, human
Description: Cell Proliferation Assay. Cell proliferation was measured by MTT (3-(4,5-dimethylthiazol-2-yl)-2,5-diphenyltetrazolium bromide; Sigma) reduction. To test the cell proliferation rate, 500-1×10^4 cells/well were seeded in a 96-well plate in a total volume of 100 μL in triplicate in each experiment. The next day, cells were treated with indicated concentrations of drugs. Five days later, 20 μL of MTT substrate (2 mg/mL) was added to each well and incubated with cells for 3 hr. Then the culture medium was removed, and 100 μL of dimethyl sulfoxide was added. Plates were read at 490 nm and 650 nm (background) in a microplate reader (Molecular Devices). After subtraction of background, the cell viability was calculated as fold change relative to control cells. The OD values were analyzed with Graphpad Prism 6.0 software. Each value is relative to the value in the cells treated with vehicle control. Results are shown as mean±SEM from three independent experiments.
Drug Combination Studies. […] CI<1 indicated synergism, and CI=1 and CI>1 indicated additive and antagonism, respectively.

[1] = tested on: cancer cell lines with and without the HRD gene signature; assay: Colony formation and MTT assay in cancer cell lines with intact or defective HR; format: cell-based, human; settings: prostate, renal, lung, ovarian, breast cancer lines; colony formation, MTT
Description: FIGS. 2A-D. The HRD Gene Signature Predicts Sensitivity to PARP Inhibitors in Cancer Cells. (A) Cell lines with intact HR (I) and defective HR (D) were selected for five cancer types as follows: prostate cancer: PC-3 (D) and DU-145 (I); renal cancer: ACHN (D) and 7860-O (I); lung cancer: H266 (D) and H522 (I); ovarian cancer: OVCAR-3 (D) and OVCAR-8 (I); and breast cancer: MCF7 (D), MDA-MB-231 (I), and HCC1937 […]. Modified HR repair assay was performed by transfecting cells with DRGFP DSB substrate plasmid and I-SceI plasmid through electroporation at 270V, 975uF using a BioRad genepulsar II. Flow cytometry analysis was performed 48 to 72 hours later to detect GFP-positive cells. […] (B-D) Colony formation assay was performed with the indicated concentrations of olaparib (B) or rucaparib (C), or (D) cell lines were seeded in 96-well plates, treated with olaparib at the indicated concentrations for 5 days, and then analyzed by MTT assay. […]
Cell Proliferation Assay. Cell proliferation was measured by MTT (3-(4,5-dimethylthiazol-2-yl)-2,5-diphenyltetrazolium bromide; Sigma) reduction. […] Plates were read at 490 nm and 650 nm (background) in a microplate reader (Molecular Devices). After subtraction of background, the cell viability was calculated as fold change relative to control cells. The OD values were analyzed with Graphpad Prism 6.0 software. […]

HCC1937 cells = assay: Apoptosis analysis; format: cell-based, human; settings: olaparib plus TTK inhibitor, 48 hours
Description: FIGS. 14A-B. TTK inhibitor enhances apoptosis induced by PARP inhibitor. (A) TTK expression levels in basal-like or luminal breast cancer cell lines and immortal human mammalian epithelial cells. Cell lysates were harvested from indicated cell lines and subjected to Western blot analysis. (B) HCC1937 cells were treated with olaparib, or combined with TTK inhibitor AZ3146 for 48 hours and subjected to apoptosis analysis. Each value represents the mean±SD from three independent experiments.

MCF-10A cells = assay: Colony formation assay in MCF-10A knockdown cell lines; format: cell-based, human
Description: FIGS. 3A-C. Loss of PTEN Reverses HRD and Confers PARP Inhibitor Resistance to BRCA1-Depleted Cells through Over-expression of TTK. (A) Modified HR repair assay was performed in MCF-10A cells by transfecting cells with DRGFP DSB substrate plasmid and I-SceI plasmid through electroporation, followed by analysis of GFP-positive cells by flow cytometry 48 to 72 hours later. Each value is relative to the percentage of GFP-positive cells in I-SceI-transfected control cells. Results are show as mean±SD from three independent experiments. Student's t-test was performed from results of three independent experiments. (B) Cells were seeded at a very low density and treated with indicated concentrations of olaparib for 10 to 15 days to allow colony formation. The rate of cell survival in response to olaparib was determined by colony formation assay. Each value was relative to control cells without treatment and represents the mean±SD from three independent experiments. […] (C) Quantitative analysis of HR repair assay in cells transfected with TTK plasmids or the indicated siRNAs. Each value is relative to the percentage of GFP-positive cells in I-SceI-transfected control cells. Results are shown as mean±SD from three independent experiments. […] BRCA1 SMARTpool siRNA was used as a positive control.
FIGS. 11A-B. The HRD Gene Signature Predicts HR-deficiency and Sensitivity to PARP Inhibitors in Cancer Cells. (A) Cells were seeded in a very low density and treated with indicated concentrations of PARP inhibitor olaparib for 10-15 days to allow colony formation. The rate of cell survival was determined by colony-formation assay. Colonies were stained with 0.25% crystal violet/25% methanol and counted both manually and digitally using ImageJ software. […]
Colony Forming Assay. […] Colonies were counted manually (colonies containing 50 or more cells were counted) or digitally using ImageJ software with customized parameters optimized based on three preliminary manual counts or blindly chosen. […]

BRCA mutation carriers = settings: phase I, oral monotherapy; cited from earlier work
[2] = tested on: breast cancer patients with BRCA1/2 mutations; settings: phase II; cited from earlier work
[3] = tested on: BRCA1/2 mutation carriers with recurrent ovarian cancer; settings: phase II; cited from earlier work
[4] = tested on: BRCA-negative patients with advanced-stage triple-negative breast cancer; settings: 15 BRCA-negative patients, advanced-stage TNBC; cited from earlier work

**Q.** Which “synergistic effect on PARP inhibitor treatment” value (HCC1937; MTT) does the source give for `CCNC(=O)c1noc(-c2cc(C(C)C)c(O)cc2O)c1-c1ccc(CN2CCOCC2)cc1` [AUY922] here?
**A.** synergistic effect

**Q.** What about the “synergy compared with vorinostat combinations” value (HCC1937; combinations with PARP inhibitors) of the same molecule?
**A.** relatively higher synergy

**Q.** Which “sensitivity of cell lines with the HRD gene signature compared with cell lines with intact HR repair” value [1] does the source give for `CNCc1ccc(-c2[nH]c3cc(F)cc4c3c2CCNC4=O)cc1` [rucaparib] here?
**A.** more sensitive

**Q.** For AZ3146, which apoptosis (HCC1937 cells) is on record?
**A.** enhanced olaparib-induced apoptosis

**Q.** With `O=C(c1cc(Cc2n[nH]c(=O)c3ccccc23)ccc1F)N1CCN(C(=O)C2CC2)CC1` [olaparib] as the molecule, how does the “sensitization by BRCA1-PTEN double knockdown” value (MCF-10A cells; MCF-10A double knockdown cells) read?
**A.** did not sensitize cells

**Q.** What about the “cellular sensitivity of BRCA1-, RAD51- and BRIT1-deficient cells” value (MCF-10A cells; MCF-10A knockdown vs control cells, 10-15 days) of the same molecule?
**A.** greatly increased cellular sensitivity

**Q.** And the “sensitization by BRCA1 or PTEN deficiency” value (MCF-10A cells; MCF-10A single knockdown cells)?
**A.** sensitized cells

**Q.** And the “sensitivity of cell lines with the HRD gene signature compared with cell lines with intact HR repair” value [1]?
**A.** more sensitive

**Q.** What about the “BRCA mutation carriers that did not respond” value (BRCA mutation carriers) of the same molecule?
**A.** more than 35%

**Q.** What about the response rate [2] of the same molecule?
**A.** 41%

**Q.** What about the objective response rate [3] of the same molecule?
**A.** 33%

**Q.** And the “complete or partial responses” value [4]?
**A.** no complete or partial responses
